Test results published in publication PMC13489962, “Small-molecule modulation of β-arrestins” (Nature, 2026).

Molecular target: T1, βARR1 coupling to pβ2V2R (Rattus norvegicus, UniProt P29066)
T1 construct: βARR1 or βARR2 construct, with their C terminus truncated (at amino acid 393 or 394, respectively); GST (pGEX4T1) (N, cleaved yes); made in house; host or cells: βARR1: E. coli BL21 (DE3) pLysS; receptor: Sf9 membranes, co-expressed with GRK2–CAAX
Experiment: [3H]-Fen high-affinity agonist binding promoted by βARR1 at pβ2V2R
Format: biochemical
Conditions: βARR1 2 μM, [3H]-Fen 6 nM, read-out: inhibition of βARR1-mediated stabilization of the high-affinity β2V2R state
Protocol: The N-terminal Flag-tagged T4 lysozyme fusion-β2V2R construct (β2AR residues 1–341 fused to V2R residues 328–372), bearing a TEV cleavage site, was co-expressed with GRK2–CAAX (membrane-anchored GRK2) or wild-type β2AR in Sf9 insect cells using the Baculovirus Expression System, as described previously[44],[62],[63],[68],[69]. At 66 h after infection, cells expressing T4L–β2V2R were stimulated with 20 μM isoproterenol for 20 min at 37 °C to induce receptor phosphorylation (pβ2V2R), while β2AR-expressing cells remained untreated. All cells were washed extensively to remove residual agonist. For membrane preparation from these cells, briefly, cells were resuspended in cold homogenization buffer (75 mM Tris-HCl, pH 7.4, 2 mM EDTA, and cOmplete protease inhibitor) and collected by centrifugation at 500g for 5 min at 4 °C. […]
To assess the effects of β-arrestin modulators on β-arrestin- or Gαs–βγ-promoted high-affinity agonist binding, [^3H]-Fen binding assays were performed using membranes from Sf9 cells expressing phosphorylated β2V2R (pβ2V2R) or β2AR[28]. […] Bound [^3H]-Fen was extracted overnight in scintillation fluid and quantified by scintillation counting. Specific binding was calculated by subtracting nonspecific from total binding.

T1 sequence (P29066 1-393): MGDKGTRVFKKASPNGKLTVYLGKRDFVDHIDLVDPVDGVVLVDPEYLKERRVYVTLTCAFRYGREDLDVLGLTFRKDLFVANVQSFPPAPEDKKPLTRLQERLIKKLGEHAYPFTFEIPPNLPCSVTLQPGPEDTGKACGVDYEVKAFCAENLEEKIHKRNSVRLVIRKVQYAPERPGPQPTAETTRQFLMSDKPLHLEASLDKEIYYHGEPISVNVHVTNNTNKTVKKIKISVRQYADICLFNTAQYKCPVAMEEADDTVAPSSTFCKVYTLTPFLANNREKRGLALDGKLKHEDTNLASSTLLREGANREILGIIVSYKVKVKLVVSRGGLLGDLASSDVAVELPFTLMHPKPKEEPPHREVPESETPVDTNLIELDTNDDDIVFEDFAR

In the case of `C=C1C(=O)[C@]23[C@H](O)[C@H]1CC[C@H]2[C@@]12CO[C@]3(O)[C@@H](O)[C@@H]1C(C)(C)CC[C@@H]2O` [Cmpd-5, (1S,4aR,5S,6S,6aR,9S,11aS,11bS,14R)-1,5,6,14-tetrahydroxy−4,4-dimethyl-8-methylenedecahydro-1H-6,11b-(epoxymethano)-6a,9-methanocyclohepta[a]naphthalen-7(8H)-one], the inhibition at 100 µM is reported as roughly 40%.
